Tests used:
[1] = system: human umbilical artery endothelial cells (HUAECs); assay: Transfection of HUAEC with lipoplexes, β-galactosidase expression; type: cell-based; details: lipid used individually
Method: The cells were seeded in 96-well plates at 24 hours before transfection at densities to give about 80% confluence at the time of transfection. Chloroform solutions of EDLPC with EDOPC and EDLPC with EDMPC were mixed at the different ratios and then chloroform was removed under N2 stream and vacuum. The lipid mixtures were hydrated in HBSS at 1 mg/ml to form liposomes. Liposomes and plasmid DNA were diluted in OptiMEM to 80 μg/ml for lipid and to 20 μg/ml for DNA, and liposomes were pipetted into an equal volume of plasmid DNA solution at a 4:1 weight ratio and mixed gently. The resultant DNA (plasmid with β-galactosidase marker gene)—lipid complexes were incubated at room temperature for 15 min and then added to the cells that were either in medium lacking serum (black bars) or medium containing 5% serum (gray bars). The lipoplexes had 35% (lipoid) excess positive over negative (DNA) charge. Cells were assayed for β-galactosidase expression 24 hours after transfection. Data represent the mean±S.D. of a representative experiment performed in quadruplicate. ˜20,000 fluorescence units corresponded approximately to 0.1 milliunit of β-galactosidase.
Cells were treated with DNA-lipid complex for 2 h in the absence (“no serum”) or presence of serum (“serum”) and then washed with HBSS and supplemented with fresh culture medium. Data represent the mean±S.D. of a representative experiment performed in quadruplicate.
Cells were treated with DNA-lipid complex for 2 h in the absence (“no serum”) or presence of 5% normal serum (“normal serum”) or 5% delipidated serum (“delipidated serum”) and then washed with HBSS and supplemented with fresh regular culture medium. Data represent the mean±S.D. of a representative experiment performed in quadruplicate.
Conditions were identical with those described in FIG. 1 except that different lipoid mixtures were used. Ditetradecyldimethyammonium (di C 14 substituted quaternary ammonium) was mixed with dioctadecylammonium (di C 18 quaternary ammonium).

HUAECs = assay: Intracellular distribution of fluorescent lipid and oligonucleotide of lipoplexes; type: cell-based, human
Method: Lipoplexes were labeled with a fluoresce in derivative of a double-stranded dodecameric oligonucleotide. Cells were incubated with the resulting lipoplexes in the presence of serum for 2 h and imaged under a fluorescence microscope at 2 h later after being washed with HBSS.
In order to determine if this pattern of fusion is also observed within cells (e.g., the mixture is more prone to fuse with endosomal membranes facilitating escape of DNA from endosomal degradation and nuclei entrance) the intracellular distribution of fluorescent lipid and oligonucleotide in EDOPC and EDLPC/EDOPC (60/40) lipoplexes was investigated. […] Lipoplexes were labeled with a fluorescein derivative of a double-stranded dodecameric oligonucleotide. Cells were incubated with the resulting lipoplexes in the presence of serum for 2 h and imaged under a fluorescence microscope after being washed in HBSS. […] Similar images were obtained with fluorescent plasmid DNA, although the fluorescence of the nucleus was less intense.

SMILES | transfection activity of the individual lipid [1] | intracellular distribution of lipid (HUAECs; fluorescent lipid in lipoplexes) | intracellular distribution of oligonucleotide (HUAECs; fluorescent oligonucleotide in lipoplexes, in the presence of serum)
CCCCCCCCCCCC(=O)OC[C@H](COP(=O)(OCC)OCC[N+](C)(C)C)OC(=O)CCCCCCCCCCC (some centres unmarked) [EDLPC, 1,2-dilauroyl-sn-glycero-3-ethylphosphocholine] | quite weak transfection reagents | – | –
CCCCCCCCCCCCCC(=O)OC[C@H](COP(=O)(OCC)OCC[N+](C)(C)C)OC(=O)CCCCCCCCCCCCC (some centres unmarked) [EDMPC, 1,2-dimyristol-sn-glycero-3-ethylphosphocholine] | quite weak transfection reagents | – | –
CCCCCCCC/C=C\CCCCCCCC(=O)OC[C@@H](COP(=O)(OCC)OCC[N+](C)(C)C)OC(=O)CCCCCCC/C=C\CCCCCCCC (some centres unmarked) [EDOPC, 1,2-dioleoyl-sn-glycero-3-ethylphosphocholine] | quite weak transfection reagents | remained in the cytoplasm for at least 20 hours | remained in the cytoplasm for at least 20 hours

Reference: patent US7732420B2, “Combinations of transfection lipids exhibiting increased transfection efficiencies” (Northwestern University, priority 2003, dated 2010)
